Test system: IL-1β stimulated PGE2 production
Test: IL-1β stimulated PGE2 production cell culture assay, an inflammation model
Type: cell-based
Conditions: vitamin or vitamin derivative added to triclosan
Source text: The present invention is in part derived from a finding that, upon addition of an antioxidant vitamin or vitamin derivative to an antibacterial phenolic compound having anti-inflammatory activity, in particular a halogenated diphenylether compound having such activity, the anti-inflammatory activity can be enhanced.

**Q.** With `O=C1O[C@H]([C@@H](O)CO)C(O)=C1O` [ascorbic acid] as the compound, how does the “enhancing the anti-inflammatory activity of triclosan” value read?
**A.** The value was “especially effective”.

**Q.** For `CC(=O)Oc1c(C)c(C)c2c(c1C)CCC(C)(CCC[C@H](C)CCC[C@H](C)CCCC(C)C)O2` (some centres unmarked) [vitamin E acetate], which “enhancing the anti-inflammatory activity of triclosan” value is on record?
**A.** Its value is “especially effective”.

**Q.** With `Cc1c(C)c2c(c(C)c1O)CCC(C)(C(=O)O)O2` (centres unmarked) [TROLOX®] as the compound, how does the “enhancing the anti-inflammatory activity of triclosan” value read?
**A.** The value was “especially effective”.

**Q.** For vitamin E, which “enhancing the anti-inflammatory activity of triclosan” value is on record?
**A.** Its value is “less dramatic enhancement”.

**Q.** With `CCCCCCCCCCCCCCCC(=O)OC[C@H](O)[C@H]1OC(=O)C(O)=C1O` [Ascorbyl palmitate, ascorbyl palmitate] as the compound, how does the “enhancing the anti-inflammatory activity of triclosan” value read?
**A.** Its value is “less dramatic enhancement”.

From patent US20060120975A1, “Oral care composition comprising a phenolic compound and antioxidant vitamins and vitamin derivatives” (Colgate-Palmolive Company, priority 2004, published 2006)
